Strand notation (5' to 3'): a small letter for the sugar, then the base; units joined by * are phosphorothioate-linked, units joined directly phosphodiester-linked; [ ] holds rarer units or linkages, { } end groups; capitals alone tell only the bases. e = 2'-O-(2-methoxyethyl) (MOE); [5mC] = 5-methylcytosine; d = 2'-deoxy (DNA)
Legend:
[1] = system: human PKK mRNA; experiment: Antisense inhibition of human PKK mRNA in HepaRG cells, 1,000 nM, MOE/deoxy/cEt oligonucleotides (Example 3); assay type: cell-based
Summary of the method: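 Readout is percent PKK mRNA reduction against untreated controls, by real-time PCR (RTS3454) adjusted for total RNA via RIBOGREEN. Oligonucleotides, phosphorothioate gapmers of 16 nucleosides with cEt, MOE and deoxy sugars, were delivered at 1,000 nM by electroporation to 20,000 HepaRG cells/well for roughly 24 h.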

[2] = Tail bleeding assay (Example 20); assay type: in vivo, mouse; settings: BALB/c mice; for Bleeding: blood collected over 40 minutes
Procedure: Tail-bleeding was measured to observe whether treatment with ISIS 482584 causes excess bleeding or hemorrhage in mice.
Groups of 10 male BALB/c mice were treated with 10 mg/kg, 20 mg/kg, or 40 mg/kg of ISIS 482584, administered subcutaneously twice a week for 3 weeks (weekly doses of 20 mg/kg, 40 mg/kg, or 80 mg/kg). A control group of 8 BALB/c mice was treated with PBS, administered subcutaneously twice a week for 3 weeks.
Two days after the final treatment of ISIS oligonucleotides or PBS, mice were placed in a tail bleeding chamber. Mice were anesthetized in the chamber with isoflurane. Then, a small piece of tail (approximately 4 mm from the tip) was cut with sterile scissors. The cut tail was immediately placed in a 15 mL Falcon tube filled with approximately 10 mL of 0.9% NaCl buffer solution warmed to 37° C. The blood was collected over the course of 40 minutes. The saline filled tubes were weighed both before and after bleeding.

[3] = system: high molecular weight kininogen (HMWK); experiment: Western blot quantification of HMWK and HMWK cleavage product by densitometer (Example 14); assay type: in vivo, mouse; settings: for Quantification of HMWK by densitometer / Quantification of HMWK cleavage product by densitometer: Western blot of blood samples, basal model
Source text: Treatment with PKK antisense oligonucleotide results in stabilization of HMWK. Thus, vascular permeability is reduced in ISIS 482584-treated groups in a dose-dependent manner. […] Thus, reduced HMWK is caused by PKK cleavage of HMWK into cleavage products (including bradykinin and HKa). Data are presented in Intensity Units as measured by densitometer.

[4] = Liver function markers in cynomolgus monkeys (Example 8); settings: cynomolgus monkey plasma, 40 mg/kg sc
Procedure: Prior to the study, the monkeys were kept in quarantine for a 30-day period, during which the animals were observed daily for general health. The monkeys were 2-4 years old and weighed between 2 and 4 kg. Ten groups of four randomly assigned male cynomolgus monkeys each were injected subcutaneously with ISIS oligonucleotide or PBS. PBS solution or ISIS oligonucleotides at a dose of 40 mg/kg were administered initially with a loading regimen consisting of four doses on the first week of the study (days 1, 3, 5, and 7), followed by a maintenance regimen consisting of once weekly administration starting on Day 14 (weeks 2 to 13). Subcutaneous injections were performed in clock-wise rotations at 4 sites on the back; one site per dose. The injection sites were delineated by tattoo, while sedated using ketamine, and were separated by a minimum of 3 cm.
To evaluate the effect of ISIS oligonucleotides on hepatic function, the monkeys were fasted overnight. Approximately, 1.5 mL of blood samples were collected from all the study groups. Blood was collected in tubes without anticoagulant for serum separation. The tubes were kept at room temperature for a minimum of 90 min and then centrifuged at 3,000 rpm for 10 min. Levels of various liver function markers were measured using a Toshiba 120FR NEO chemistry analyzer (Toshiba Co., Japan).

[5] = system: captopril-induced vascular permeability; experiment: Combination of PKK and Factor 12 antisense oligonucleotides on captopril-induced vascular permeability (Example 15); assay type: in vivo, mouse; settings: positive control: PBS + captopril 20 μg ip + HOE-140 30 μg ip
Procedure: Mice were treated varying doses of ISIS 410944, a 5-10-5 MOE gapmer targeting Factor 12 ([…]; SEQ ID NO: 2247), and ISIS 482584 in a captopril-induced vascular permeability model.
Group 1 consisted of 4 mice and was treated with PBS administered subcutaneously twice a week for 3 weeks. No other treatment was administered to Group 1 which served as a control group to measure the basal levels of vascular permeability.
Group 2 consisted of 8 mice and was treated with PBS administered subcutaneously twice a week for 3 weeks. At the end of the treatment period, the mice were intraperitoneally administered 20 μg of captopril.
Group 3 consisted of 4 mice and was treated with PBS administered subcutaneously twice a week for 3 weeks. At the end of the treatment period, the mice were intraperitoneally administered 20 μg of captopril. The mice were also intraperitoneally administered 30 μg of HOE-140. Group 3 served as a positive control for inhibition of captopril-induced vascular permeability.
Groups 4, 5, 6, 7, and 8 consisted of 8 mice each and were treated with 2.5 mg/kg, 5 mg/kg, 10 mg/kg, 20 mg/kg, or 40 mg/kg (corresponding to 5 mg/kg, 10 mg/kg, 20 mg/kg, 40 mg/kg, or 80 mg/kg per week), respectively of ISIS 482584 and ISIS 410944 each administered subcutaneously twice a week for 3 weeks. At the end of the treatment period, the mice of all the groups were intraperitoneally administered 20 μg of captopril. Groups 4-8 served as the experimental treatment groups for examining the effect of ISIS 410944 and ISIS 482584 on captopril-induced vascular permeability.
All the groups were then injected with 30 mg/kg of Evans Blue solution in the tail vein. The mice were sacrificed 30 min after the Evans Blue solution administration and colons, feet, ears, and intestines were harvested.
The harvested tissues from the feet, colon, and ears were placed in formamide solution overnight to leach out the Evans Blue dye. The formamide solution containing feet and ear tissue was heated to 55° C. and left overnight. Higher OD values are associated with higher levels of permeability.

531231 (eT*eA*eT*e[5mC]*eA*d[5mC]*dT*dG*dT*dA*d[5mC]*dT*dA*dG*dT*eT*eT*e[5mC]*e[5mC]*eT) [compound 531231]
% inhibition ([1]; HepaRG cells, 1,000 nM antisense oligonucleotide, Table 29): 46% | % inhibition ([1]; HepaRG cells, electroporation with 1,000 nM antisense oligonucleotide, approx. 24 hours, PKK mRNA by RT-PCR (RTS3454), relative to untreated control cells, Table 25 experiment): 19% | % inhibition ([1]; HepaRG cells, electroporation with 1,000 nM antisense oligonucleotide, approx. 24 hours, PKK mRNA by RT-PCR (RTS3454), relative to untreated control cells, Table 26 experiment): 42% | % inhibition ([1]; HepaRG cells, electroporation with 1,000 nM antisense oligonucleotide, approximately 24 hours, primer probe set RTS3454, relative to untreated control cells, experiment of Table 23): 16% | % inhibition ([1]; HepaRG cells, electroporation with 1,000 nM antisense oligonucleotide, approximately 24 hours, primer probe set RTS3454, relative to untreated control cells, experiment of Table 24): 0% | % inhibition ([1]; PKK mRNA, HepaRG cells, 1,000 nM antisense oligonucleotide, Table 31): 48% | % inhibition ([1]; Table 21 experiment, HepaRG cells, electroporation with 1,000 nM antisense oligonucleotide, approx. 24 hours, PKK mRNA by RT-PCR (RTS3454), relative to untreated control cells): 62% | % inhibition ([1]; Table 22 experiment, HepaRG cells, electroporation with 1,000 nM antisense oligonucleotide, approx. 24 hours, PKK mRNA by RT-PCR (RTS3454), relative to untreated control cells): 75% | % inhibition ([1]; Table 27, HepaRG cells, 1,000 nM antisense oligonucleotide, human PKK mRNA): 72% | % inhibition ([1]; Table 28, HepaRG cells, 1,000 nM antisense oligonucleotide, human PKK mRNA): 46% | % inhibition ([1]; Table 30, human PKK mRNA, HepaRG cells, 1,000 nM antisense oligonucleotide): 46%

ISIS 482584: 5-10-5 MOE gapmer targeting murine PKK, GGCATATTGGTTTTTGGAAT; SEQ ID NO: 2244 (antisense eG*eG*e[5mC]*eA*eT*dA*dT*dT*dG*dG*dT*dT*dT*dT*dT*eG*eG*eA*eA*eT)
Bleeding ([2]; 20 mg/kg/wk sc 3 weeks): 0.03 mL | Bleeding ([2]; 40 mg/kg/wk sc 3 weeks): 0.14 mL | Bleeding ([2]; 80 mg/kg/wk sc 3 weeks): 0.07 mL | tail bleeding ([2]; 10-40 mg/kg s.c. twice a week for 3 weeks): did not significantly affect bleeding | Quantification of HMWK by densitometer ([3]; 10 mg/kg/week): 507 Intensity Units | Quantification of HMWK cleavage product by densitometer ([3]; 10 mg/kg/week): 414774 Intensity Units | Quantification of HMWK by densitometer ([3]; 20 mg/kg/week): 608 Intensity Units | Quantification of HMWK cleavage product by densitometer ([3]; 20 mg/kg/week): 403360 Intensity Units | Quantification of HMWK by densitometer ([3]; 40 mg/kg/week): 873 Intensity Units | Quantification of HMWK cleavage product by densitometer ([3]; 40 mg/kg/week): 388135 Intensity Units | Quantification of HMWK by densitometer ([3]; 80 mg/kg/week): 7279 Intensity Units | Quantification of HMWK cleavage product by densitometer ([3]; 80 mg/kg/week): 204482 Intensity Units | Quantification of HMWK by densitometer ([3]; 160 mg/kg/week): 21358 Intensity Units | Quantification of HMWK cleavage product by densitometer ([3]; 160 mg/kg/week): 19936 Intensity Units | HMWK cleavage product ([3]; vs PBS control, dose-dependent): lower HMWK cleavage product | levels of HMWK ([3]; vs PBS control, dose-dependent): higher levels of HMWK

Tes Ges mCes Aes Aes Gds Tds mCds Tds mCds Tds Tds Gds Gds mCds Aes Aes Aes mCes Ae [ISIS 546254]
ALT [4]: 54 IU/L | AST [4]: 68 IU/L | Albumin [4]: 3.8 g/dL

NC(N)=NCCC[C@@H](N)C(=O)N[C@@H](CCCN=C(N)N)C(=O)N1CCC[C@H]1C(=O)N1C[C@H](O)C[C@H]1C(=O)NCC(=O)N[C@@H](Cc1cccs1)C(=O)N[C@@H](CO)C(=O)N1Cc2ccccc2C[C@@H]1C(=O)N1[C@H](C(=O)N[C@@H](CCCN=C(N)N)C(=O)O)C[C@@H]2CCCC[C@@H]21 [HOE-140, Icatibant, reference compound]
OD600 nm of Evans Blue dye, Colon [5]: 0.23 | OD600 nm of Evans Blue dye, Ears [5]: 0.04 | OD600 nm of Evans Blue dye, Feet [5]: 0.06 | OD600 nm of Evans Blue dye, Intestines [5]: 0.15

— patent US11840686B2, “Modulation of prekallikrein (PKK) expression” (Ionis Pharmaceuticals, Inc., priority 2013, dated 2023)
